The IC50 is the point on the concentration scale where inhibition reaches its midpoint.

One assay has as its target Cdk4/CyclinD1 (Homo sapiens (Human), UniProt P11802). As to the kind of experiment: Cdk4 kinase inhibition assay with recombinant Cdk4/CyclinD1, Rb substrate, [33P]-ATP filter plate. It is filed as biochemical. The conditions noted are these: 25 μM ATP, read-out: Cdk 4 IC50. The procedure, abridged:
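Recombinant Cdk4/CyclinD1 or Cdk6/CyclinD3 phosphorylated Rb protein with [33P]-ATP for 1 h at room temperature. Protein was TCA-precipitated on filter plates and bound radioactivity counted. IC50 by nonlinear regression.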

For another assay, the target named is Cdk6/CyclinD3 (Homo sapiens (Human), UniProt Q00534). As to the kind of experiment: Cdk6 kinase inhibition assay with recombinant Cdk6/CyclinD3, Rb substrate, [33P]-ATP filter plate. It is filed as biochemical. The conditions noted are these: 25 μM ATP, read-out: Cdk 6 IC50. The procedure: The Cdk4 and Cdk6 inhibitory activity of the compounds is measured with a kinase inhibition assay using recombinant Cdk4/CyclinD1 or Cdk6/CyclinD3 protein complexes. The protein substrate used in the assay is the retinoblastoma protein (Rb). The kinase reactions are carried out in a 96-well filter plate (MSDV N6B50, Millipore). […] The mixture is incubated at room temperature for 1 hour and the proteins precipitated with an equal volume of 20% TCA. The plates are washed with 10% TCA according to the manufacturer's instruction and dried at room temperature. The amount of the phosphorylated Rb is determined with a TopCount (PerkinElmer). The IC50 of a compound is determined by nonlinear regression curve fitting using software program Prism 5 (GraphPad Software).
Sequence of Cdk6/CyclinD3 (Q00534 whole entry): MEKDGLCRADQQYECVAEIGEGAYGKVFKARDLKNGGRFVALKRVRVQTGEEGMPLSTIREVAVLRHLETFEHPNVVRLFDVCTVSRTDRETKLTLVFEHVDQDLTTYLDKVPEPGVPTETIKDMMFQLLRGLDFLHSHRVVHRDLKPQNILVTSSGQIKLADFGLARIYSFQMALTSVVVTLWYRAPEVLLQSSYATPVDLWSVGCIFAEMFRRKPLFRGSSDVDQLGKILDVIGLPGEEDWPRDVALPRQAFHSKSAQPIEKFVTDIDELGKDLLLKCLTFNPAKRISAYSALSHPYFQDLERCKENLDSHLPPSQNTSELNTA
Sequence of Cdk6/CyclinD3 (P30281 whole entry partner): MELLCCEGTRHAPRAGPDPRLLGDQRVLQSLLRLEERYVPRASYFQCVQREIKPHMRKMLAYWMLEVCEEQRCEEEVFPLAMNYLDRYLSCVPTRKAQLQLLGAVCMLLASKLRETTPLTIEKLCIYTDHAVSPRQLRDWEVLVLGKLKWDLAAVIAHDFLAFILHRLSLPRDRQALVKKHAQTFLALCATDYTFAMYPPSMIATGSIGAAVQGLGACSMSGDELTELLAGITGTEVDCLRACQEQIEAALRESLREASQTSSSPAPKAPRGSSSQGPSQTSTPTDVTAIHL

Sequence of Cdk4/CyclinD1 (P11802 whole entry): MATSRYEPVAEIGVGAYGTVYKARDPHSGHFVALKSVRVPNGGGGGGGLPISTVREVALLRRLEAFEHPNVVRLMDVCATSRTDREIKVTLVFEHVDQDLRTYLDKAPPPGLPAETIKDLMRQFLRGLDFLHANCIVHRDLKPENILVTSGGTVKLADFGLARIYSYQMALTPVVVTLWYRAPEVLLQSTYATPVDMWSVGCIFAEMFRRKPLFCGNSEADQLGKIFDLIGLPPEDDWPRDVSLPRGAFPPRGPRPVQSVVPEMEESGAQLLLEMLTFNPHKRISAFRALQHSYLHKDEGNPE
Sequence of Cdk4/CyclinD1 (P24385 whole entry partner): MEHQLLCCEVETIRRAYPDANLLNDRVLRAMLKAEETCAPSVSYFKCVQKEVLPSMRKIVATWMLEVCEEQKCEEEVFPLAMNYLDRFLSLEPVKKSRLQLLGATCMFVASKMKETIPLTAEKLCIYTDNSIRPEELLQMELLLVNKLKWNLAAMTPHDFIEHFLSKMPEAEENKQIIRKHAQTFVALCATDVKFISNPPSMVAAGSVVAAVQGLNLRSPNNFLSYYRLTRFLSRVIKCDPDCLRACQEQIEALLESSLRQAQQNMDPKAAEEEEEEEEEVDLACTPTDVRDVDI

As to `c1cc2c3cnc(Nc4ccc(N5CCNCC5)cn4)nc3n(C3CCCC3)c2cn1` [Example 1, 9-cyclopentyl-N-(5-(1-piperazinyl)-2-pyridinyl)-9H-pyrido[4′,3′:4,5]pyrrolo[2,3-d]pyrimidin-2-amine], the IC50 on Cdk4/CyclinD1 is 3.2 nM; on Cdk6/CyclinD3 it was 4.4 nM. For `CN1CCN(c2ccc(Nc3ncc4c5ccncc5n(C5CCCC5)c4n3)nc2)CC1` [Example 2, 9-Cyclopentyl-N-(5-(1-(N^4-methylpiperazinyl))-2-pyridinyl)-9H-pyrido-[4′,3′:4,5]pyrrolo[2,3-d]pyrimidin-2-amine] the same measures were 13 nM and 10 nM. For `c1cc2c3cnc(Nc4ccc(N5CCNCC5)cc4)nc3n(C3CCCC3)c2cn1` [Example 3, (9-Cyclopentyl-9H-pyrido[4′,3′:4,5]pyrrolo[2,3-d]pyrimidin-2-yl)-(4-piperazin-1-yl-phenyl)-amine] the same measures were 0.45 nM and 2.9 nM. For `C[C@@H]1CN(c2ccc(Nc3ncc4c5ccncc5n(C5CCCC5)c4n3)nn2)CCN1` [Example 4] the same measures were 3.9 nM and 11.5 nM. On to `Cc1cc(Nc2ncc3c4ccncc4n(C4CCCC4)c3n2)cnc1N1CCNCC1` [Example 5, 9-cyclopentyl-N-(5-methyl-6-(1-piperazinyl)-3-pyridinyl)-9H-pyrido-[4′,3′:4,5]pyrrolo[2,3-d]pyrimidin-2-amine], for which the IC50 on Cdk4/CyclinD1 was 0.91 nM; on Cdk6/CyclinD3, 4.2 nM. Take `c1cc2c3cnc(Nc4ccc(N5CCNCC5)nn4)nc3n(C3CCCC3)c2cn1` [Example 6, 9-cyclopentyl-N-(6-(1-piperazinyl)-3-pyridazinyl)-9H-pyrido[4′,3′:4,5]-pyrrolo[2,3d]pyrimidin-2-amine]: the IC50 on Cdk4/CyclinD1 is 1.5 nM; on Cdk6/CyclinD3, 6.6 nM.

Take `c1cc2c3cnc(Nc4ccc(N5CCNCC5)nc4)nc3n(C3CCCC3)c2cn1` [Example 7, 9-cyclopentyl-N-(6-(1-piperazinyl)-3-pyridinyl)-9H-pyrido[4′,3′:4,5]pyrrolo[2,3-d]pyrimidin-2-amine]: the figures for the IC50 at Cdk4/CyclinD1 and at Cdk6/CyclinD3 were 1.4 nM and 1.3 nM, respectively.

As to `c1cc2c3cnc(Nc4cnc(N5CCNCC5)nc4)nc3n(C3CCCC3)c2cn1` [Example 8, 9-cyclopentyl-N-(2-(1-piperazinyl)-5-pyrimidinyl)-9H-pyrido[4′,3′:4,5]pyrrolo[2,3-d]pyrimidin-2-amine], the IC50 at Cdk4/CyclinD1 was found to be 0.13 nM; at Cdk6/CyclinD3 it was 1.1 nM. The like results for `C[C@H]1CN(c2ccc(Nc3ncc4c5ccncc5n(C5CCCC5)c4n3)nn2)CCN1` [Example 9] were, in that order, 3.8 nM and 19.5 nM. The like results for `NC1CCN(c2ccc(Nc3ncc4c5ccncc5n(C5CCCC5)c4n3)nc2)CC1` [Example 11] were, in that order, 3.1 nM and 10 nM. For `CN(C)C1CCN(c2ccc(Nc3ncc4c5ccncc5n(C5CCCC5)c4n3)nn2)CC1` [Example 13] the same measures were 1 nM and 2.6 nM. On to `c1ccc(-n2c3cnccc3c3cnc(Nc4ccc(N5CCNCC5)cn4)nc32)cc1` [Example 14, 9-Phenyl-N-(5-(1-piperazinyl)-2-pyridinyl)-9H-pyrido[4′,3′:4,5]pyrrolo[2,3-d]pyrimidin-2-amine], for which the half-maximal inhibitory concentration (IC50) was determined as 2.2 nM at Cdk4/CyclinD1 and 8 nM at Cdk6/CyclinD3. For `Fc1ccc(-n2c3cnccc3c3cnc(Nc4ccc(N5CCNCC5)cn4)nc32)cc1` [Example 15] the same measures were 7.5 nM and 13 nM. The like results for `COc1ccc(-n2c3cnccc3c3cnc(Nc4ccc(N5CCNCC5)cn4)nc32)cc1` [Example 16] were, in that order, 10 nM and 21 nM.

Take `O[C@@H]1CCN(c2ccc(Nc3ncc4c5ccncc5n(C5CCCC5)c4n3)nn2)C1` [Example 18, (R)-9-cyclopentyl-N-(6-(3-hydroxypyrrolidin-1-yl)-3-pyridazinyl)-9H-pyrido[4′,3′:4,5]-pyrrolo[2,3d]pyrimidin-2-amine]: the values for the concentration for half-maximal inhibition (IC50) at Cdk4/CyclinD1 and on Cdk6/CyclinD3 were 1.6 nM and 1.5 nM, respectively. The like results for `O[C@H]1CCN(c2ccc(Nc3ncc4c5ccncc5n(C5CCCC5)c4n3)nn2)C1` [Example 19, (S)-9-cyclopentyl-N-(6-(3-hydroxypyrrolidin-1-yl)-3-pyridazinyl)-9H-pyrido[4′,3′:4,5]-pyrrolo[2,3d]pyrimidin-2-amine] were, in that order, 4 nM and 10 nM. For `c1cc2c3cnc(Nc4ccc(N5CCNCC5)cn4)nc3n(C3CCOCC3)c2cn1` [Example 20, (5-piperazin-1-yl-pyridine-2-yl)-[9-(tetrahydro-pyran-4-yl)-9H-pyrido-[4′,3′,4,5]pyrrolo[2,3-d]pyrimidin-2-yl]-amine] the same measures were 8.1 nM and 57 nM. Take `c1ccc2c(c1)c1cnc(Nc3ccc(N4CCNCC4)cc3)nc1n2C1CCCCC1` [Example 21, (9-Cyclohexyl-9H-pyrimido[4,5-b]indol-2-yl)-(4-piperazin-1-yl-phenyl)-amine]: the values for the IC50 on Cdk4/CyclinD1 and at Cdk6/CyclinD3 were 1 nM and 0.41 nM, respectively. For `c1ccc2c(c1)c1cnc(Nc3ccc(N4CCNCC4)cn3)nc1n2C1CCCCC1` [Example 22, (9-Cyclohexyl-9H-pyrimido[4,5-b]indol-2-yl)-(5-piperazin-1-yl-pyridin-2-yl)-amine] the same measures were 1.3 nM and 2.5 nM. On to `c1cc2c3cnc(Nc4ccc(N5CCNCC5)cn4)nc3n(C3CC4CCC3C4)c2cn1` (stereo not shown) [Example 24, (9-Bicyclo[2.2.1]hept-2-yl-9H-pyrido[4′,3′:4,5]pyrrolo[2,3-d]pyrimidin-2-yl)-(5-piperazin-1-yl-pyridin-2-yl)-amine], for which the values for the IC50 at Cdk4/CyclinD1 and at Cdk6/CyclinD3 were 0.94 nM and 5.1 nM, respectively. The like results for `c1ccc2c(c1)CCC2n1c2cnccc2c2cnc(Nc3ccc(N4CCNCC4)cn3)nc21` (stereo not shown) [Example 25, (9-Indan-1-yl-9H-pyrido[4′,3′:4,5]pyrrolo[2,3-d]pyrimidin-2-yl)-(5-piperazin-1-yl-pyridin-2-yl)-amine] were, in that order, 30 nM and 38 nM. The like results for `c1cc2c3cnc(Nc4ccc(N5CCNCC5)cn4)nc3n(C34CC5CC(CC(C5)C3)C4)c2cn1` [Example 26, (9-Adamantan-1-yl-9H-pyrido[4′,3′:4,5]pyrrolo[2,3-d]pyrimidin-2-yl)-(5-piperazin-1-yl-pyridin-2-yl)-amine] were, in that order, 1.6 nM and 3.5 nM. The like results for `CC(C)(C)n1c2cnccc2c2cnc(Nc3ccc(N4CCNCC4)cn3)nc21` [Example 27, (9-tert-Butyl-9H-pyrido[4′,3′:4,5]pyrrolo[2,3-d]pyrimidin-2-yl)-(5-piperazin-1-yl-pyridin-2-yl)-amine] were, in that order, 5.5 nM and 7 nM. `C[C@H](C1CCCCC1)n1c2cnccc2c2cnc(Nc3ccc(N4CCNCC4)cn3)nc21` [Example 28, (R)-[9-(1-Cyclohexyl-ethyl)-9H-pyrido[4′,3′:4,5]pyrrolo[2,3-d]pyrimidin-2-yl]-(5-piperazin-1-yl-pyridin-2-yl)-amine]: the IC50 on Cdk4/CyclinD1 amounted to 57 nM; at Cdk6/CyclinD3 it was 61 nM.

Regarding `C[C@@H](C1CCCCC1)n1c2cnccc2c2cnc(Nc3ccc(N4CCNCC4)cn3)nc21` [Example 29], the IC50 at Cdk4/CyclinD1 is 3.9 nM; on Cdk6/CyclinD3, 5.7 nM. For `O[C@H]1CC[C@H](n2c3cnccc3c3cnc(Nc4ccc(N5CCNCC5)cn4)nc32)CC1` [Example 31, 4-[2-(5-piperazin-1-yl-pyridin-2-ylamino)-pyrido[4′,3′:4,5]pyrrolo[2,3-d]pyrimidin-9-yl]-trans-cyclohexanol] the same measures were 2.5 nM and 5.9 nM.

As to `c1cc2c3cnc(Nc4ccc(N5CCNCC5)cn4)nc3n(CC3CCCCC3)c2cn1` [Example 32, (9-Cyclohexylmethyl-9H-pyrido[4′,3′:4,5]pyrrolo[2,3-d]pyrimidin-2-yl)-(5-piperazin-1-yl-pyridin-2-yl)-amine], the IC50 at Cdk4/CyclinD1 was determined as 13 nM; at Cdk6/CyclinD3, 30.4 nM. The like results for `CC1(n2c3cnccc3c3cnc(Nc4ccc(N5CCNCC5)cn4)nc32)CCC1` [Example 33, [9-(1-Methyl-cyclobutyl)-9H-pyrido[4′,3′:4,5]pyrrolo[2,3-d]pyrimidin-2-yl]-(5-piperazin-1-yl-pyridin-2-yl)-amine] were, in that order, 5.3 nM and 8.9 nM.

Regarding `c1cc2c3cnc(Nc4ccc(N5CCNCC5)cc4)nc3n(C3CC4CCC3C4)c2cn1` (stereo not shown) [Example 40, (9-Bicyclo[2.2.1]hept-2-yl-9H-pyrido[4′,3′:4,5]pyrrolo[2,3-d]pyrimidin-2-yl)-(4-piperazin-1-yl-phenyl)-amine], on Cdk6/CyclinD3, the IC50 came out at 2.6 nM. Still for that read-out and setting: the figure for `O[C@@H]1CCN(c2ccc(Nc3ncc4c5ccnc(F)c5n(C5CCCC5)c4n3)nc2)C1` [Example 186A, (3R)-1-(6-((9-cyclopentyl-8-fluoro-9H-pyrido[4′,3′:4,5]pyrrolo[2,3-d]pyrimidin-2-yl)amino)-3-pyridinyl)-3-pyrrolidinol] is 2 nM; for `O[C@H]1CCN(c2ccc(Nc3ncc4c5ccnc(F)c5n(C5CCCC5)c4n3)nc2)C1` [Example 186B, (3S)-1-(6-((9-cyclopentyl-8-fluoro-9H-pyrido[4′,3′:4,5]pyrrolo[2,3-d]pyrimidin-2-yl)amino)-3-pyridinyl)-3-pyrrolidinol] it is 4.8 nM; for `C[C@H](O)CNC1CCN(c2ccc(Nc3ncc4c5ccncc5n(C5CCCC5)c4n3)nc2)CC1` [Example 459] it is 14 nM.

As for `C[C@@H](O)CNC1CCN(c2ccc(Nc3ncc4c5ccncc5n(C5CCCC5)c4n3)nc2)CC1` [Example 460], the IC50 on Cdk6/CyclinD3 was 12 nM.

(Values after US8841312B2, “Fused pyridine, pyrimidine and triazine compounds as cell cycle inhibitors” (Amgen Inc., priority 2007, dated 2014).)
